± gives the standard deviation of the averaged measurements.
Assays:
Assay in all cases: relative viability vs DMSO control (72 h) (fraction); higher = more viable cells
[1] = test system: KHOS-240S
Procedure, shortened: (§1)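 Relative viability was measured with ATPLite and expressed as percent growth, averaged across up to triplicate wells. Sarcoma cell lines had been seeded in 384-well plates to reach 80–90% confluence, dosed after 24 h, and incubated 72 h at 37 °C, 5% CO2. All data were rescaled on a scale where 1 is full and 0 is none.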

[2] = test system: RD
Procedure, shortened: as §1

[3] = test system: SYO-1
Procedure, shortened: as §1

[4] = test system: MES-SA
Procedure, shortened: as §1

[5] = test system: SW1353
Procedure, shortened: as §1

[6] = test system: SW982
Procedure, shortened: as §1

[7] = test system: VA-ES-BJ
Procedure, shortened: as §1

[8] = test system: HT1080
Procedure, shortened: as §1

[9] = test system: SK-LMS-1
Procedure, shortened: as §1

[10] = test system: RD-ES
Procedure, shortened: as §1

[11] = test system: G401
Procedure, shortened: as §1

[12] = test system: SK-ES-1
Procedure, shortened: as §1

Cn1ncnc1[C@H]1c2n[nH]c(=O)c3cc(F)cc(c23)N[C@@H]1c1ccc(F)cc1 [Talazoparib]
Conditions | relative viability
[1], 0.00017 µM | 0.9825 ± 0.0067
[1], 0.00051 µM | 1.01 ± 0.023
[1], 0.00152 µM | 0.982 ± 0.019
[1], 0.00457 µM | 0.969 ± 0.02
[1], 0.01372 µM | 0.948 ± 0.021
[1], 0.04115 µM | 0.921 ± 0.032
[1], 0.1235 µM | 0.872 ± 0.061
[1], 0.3704 µM | 0.824 ± 0.02
[1], 1.111 µM | 0.677 ± 0.026
[1], 3.333 µM | 0.524 ± 0.023
[1], 10 µM | 0.457 ± 0.023
[2], 0.00017 µM | 0.904 ± 0.025
[2], 0.00051 µM | 0.945 ± 0.031
[2], 0.00152 µM | 0.923 ± 0.052
[2], 0.00457 µM | 0.869 ± 0.026
[2], 0.01372 µM | 0.842 ± 0.023
[2], 0.04115 µM | 0.789 ± 0.019
[2], 0.1235 µM | 0.72 ± 0.037
[2], 0.3704 µM | 0.718 ± 0.045
[2], 1.111 µM | 0.629 ± 0.045
[2], 3.333 µM | 0.586 ± 0.032
[2], 10 µM | 0.577 ± 0.033
[3], 0.00017 µM | 0.974 ± 0.037
[3], 0.00051 µM | 0.961 ± 0.022
[3], 0.00152 µM | 0.885 ± 0.071
[3], 0.00457 µM | 0.743 ± 0.024
[3], 0.01372 µM | 0.582 ± 0.019
[3], 0.04115 µM | 0.466 ± 0.028
[3], 0.1235 µM | 0.336 ± 0.03
[3], 0.3704 µM | 0.193 ± 0.017
[3], 1.111 µM | 0.081 ± 0.015
[3], 3.333 µM | 0.0279 ± 0.0031
[3], 10 µM | 0.0191 ± 0.0033
[4], 0.00017 µM | 0.972 ± 0.026
[4], 0.00051 µM | 0.975 ± 0.019
[4], 0.00152 µM | 0.945 ± 0.028
[4], 0.00457 µM | 0.901 ± 0.032
[4], 0.01372 µM | 0.768 ± 0.015
[4], 0.04115 µM | 0.678 ± 0.012
[4], 0.1235 µM | 0.555 ± 0.013
[4], 0.3704 µM | 0.478 ± 0.0071
[4], 1.111 µM | 0.392 ± 0.014
[4], 3.333 µM | 0.351 ± 0.016
[4], 10 µM | 0.314 ± 0.0053
[5], 0.00017 µM | 1.06 ± 0.025
[5], 0.00051 µM | 1.09 ± 0.025
[5], 0.00152 µM | 1.07 ± 0.055
[5], 0.00457 µM | 1.03 ± 0.055
[5], 0.01372 µM | 0.999 ± 0.012
[5], 0.04115 µM | 0.919 ± 0.035
[5], 0.1235 µM | 0.889 ± 0.034
[5], 0.3704 µM | 0.814 ± 0.046
[5], 1.111 µM | 0.753 ± 0.018
[5], 3.333 µM | 0.679 ± 0.023
[5], 10 µM | 0.633 ± 0.059
[6], 0.00017 µM | 0.911 ± 0.025
[6], 0.00051 µM | 0.906 ± 0.061
[6], 0.00152 µM | 0.904 ± 0.053
[6], 0.00457 µM | 0.862 ± 0.069
[6], 0.01372 µM | 0.785 ± 0.035
[6], 0.04115 µM | 0.729 ± 0.038
[6], 0.1235 µM | 0.615 ± 0.051
[6], 0.3704 µM | 0.602 ± 0.0075
[6], 1.111 µM | 0.499 ± 0.073
[6], 3.333 µM | 0.409 ± 0.021
[6], 10 µM | 0.361 ± 0.026
[7], 0.00017 µM | 1.01 ± 0.051
[7], 0.00051 µM | 1.01 ± 0.018
[7], 0.00152 µM | 1.01 ± 0.057
[7], 0.00457 µM | 0.955 ± 0.037
[7], 0.01372 µM | 0.926 ± 0.036
[7], 0.04115 µM | 0.849 ± 0.045
[7], 0.1235 µM | 0.738 ± 0.056
[7], 0.3704 µM | 0.601 ± 0.054
[7], 1.111 µM | 0.406 ± 0.023
[7], 3.333 µM | 0.225 ± 0.0094
[7], 10 µM | 0.163 ± 0.004
[8], 0.00017 µM | 1.06 ± 0.055
[8], 0.00051 µM | 1.05 ± 0.015
[8], 0.00152 µM | 1.05 ± 0.048
[8], 0.00457 µM | 1.037 ± 0.0054
[8], 0.01372 µM | 1 ± 0.013
[8], 0.04115 µM | 0.955 ± 0.012
[8], 0.1235 µM | 0.8497 ± 0.0061
[8], 0.3704 µM | 0.797 ± 0.026
[8], 1.111 µM | 0.662 ± 0.022
[8], 3.333 µM | 0.577 ± 0.032
[8], 10 µM | 0.554 ± 0.023
[9], 0.00017 µM | 1.01 ± 0.086
[9], 0.00051 µM | 1.05 ± 0.037
[9], 0.00152 µM | 0.999 ± 0.041
[9], 0.00457 µM | 0.999 ± 0.022
[9], 0.01372 µM | 0.982 ± 0.055
[9], 0.04115 µM | 0.956 ± 0.052
[9], 0.1235 µM | 0.9584 ± 0.0063
[9], 0.3704 µM | 0.874 ± 0.017
[9], 1.111 µM | 0.833 ± 0.033
[9], 3.333 µM | 0.795 ± 0.022
[9], 10 µM | 0.778 ± 0.021
[10], 0.00017 µM | 0.976 ± 0.025
[10], 0.00051 µM | 0.95 ± 0.034
[10], 0.00152 µM | 0.904 ± 0.043
[10], 0.00457 µM | 0.844 ± 0.052
[10], 0.01372 µM | 0.609 ± 0.02
[10], 0.04115 µM | 0.191 ± 0.013
[10], 0.1235 µM | 0.0431 ± 0.0018
[10], 0.3704 µM | 0.0199 ± 0.0028
[10], 1.111 µM | 0.0127 ± 0.0016
[10], 3.333 µM | 0.00913 ± 0.0015
[10], 10 µM | 0.0143 ± 0.001
[11], 0.00017 µM | 0.95 ± 0.06
[11], 0.00051 µM | 1.02 ± 0.033
[11], 0.00152 µM | 0.935 ± 0.024
[11], 0.00457 µM | 0.937 ± 0.023
[11], 0.01372 µM | 0.881 ± 0.019
[11], 0.04115 µM | 0.813 ± 0.041
[11], 0.1235 µM | 0.764 ± 0.011
[11], 0.3704 µM | 0.716 ± 0.019
[11], 1.111 µM | 0.663 ± 0.026
[11], 3.333 µM | 0.613 ± 0.023
[11], 10 µM | 0.555 ± 0.0082
[12], 0.00017 µM | 0.961 ± 0.05
[12], 0.00051 µM | 0.9 ± 0.02
[12], 0.00152 µM | 0.825 ± 0.025
[12], 0.00457 µM | 0.614 ± 0.021
[12], 0.01372 µM | 0.33 ± 0.018
[12], 0.04115 µM | 0.173 ± 0.0092
[12], 0.1235 µM | 0.109 ± 0.0089
[12], 0.3704 µM | 0.0754 ± 0.0047
[12], 1.111 µM | 0.0494 ± 0.0078
[12], 3.333 µM | 0.0309 ± 0.0019
[12], 10 µM | 0.0277 ± 0.0025

Source: the supplement of paper PMC10883282
